Values of other authors, collected in patent publication US20120220630A1, “PRUCALOPRIDE ORAL SOLUTION” (Shire-Movetis NV, priority 2011, published 2012).

How the values were obtained:
5-HT2A receptors = 5-HT2A receptors (Homo sapiens, UniProt P28223)
5-HT4 receptors = 5-HT4 receptors (Homo sapiens, UniProt Q13639)
[1] = tested on: colonic motility and defecation; settings: in animals

Sequence of 5-HT4 receptors (Q13639 whole entry): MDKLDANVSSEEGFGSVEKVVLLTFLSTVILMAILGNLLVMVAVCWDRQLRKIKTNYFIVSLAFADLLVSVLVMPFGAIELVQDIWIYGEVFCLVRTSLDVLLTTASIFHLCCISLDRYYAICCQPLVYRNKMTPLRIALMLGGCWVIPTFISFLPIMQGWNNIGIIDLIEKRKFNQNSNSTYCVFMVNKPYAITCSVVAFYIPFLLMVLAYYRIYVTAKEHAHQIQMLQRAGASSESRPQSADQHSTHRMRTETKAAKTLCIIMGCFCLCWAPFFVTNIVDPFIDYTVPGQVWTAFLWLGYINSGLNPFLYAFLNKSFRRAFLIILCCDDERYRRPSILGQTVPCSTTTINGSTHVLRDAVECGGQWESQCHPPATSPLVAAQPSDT
Sequence of 5-HT2A receptors (P28223 whole entry): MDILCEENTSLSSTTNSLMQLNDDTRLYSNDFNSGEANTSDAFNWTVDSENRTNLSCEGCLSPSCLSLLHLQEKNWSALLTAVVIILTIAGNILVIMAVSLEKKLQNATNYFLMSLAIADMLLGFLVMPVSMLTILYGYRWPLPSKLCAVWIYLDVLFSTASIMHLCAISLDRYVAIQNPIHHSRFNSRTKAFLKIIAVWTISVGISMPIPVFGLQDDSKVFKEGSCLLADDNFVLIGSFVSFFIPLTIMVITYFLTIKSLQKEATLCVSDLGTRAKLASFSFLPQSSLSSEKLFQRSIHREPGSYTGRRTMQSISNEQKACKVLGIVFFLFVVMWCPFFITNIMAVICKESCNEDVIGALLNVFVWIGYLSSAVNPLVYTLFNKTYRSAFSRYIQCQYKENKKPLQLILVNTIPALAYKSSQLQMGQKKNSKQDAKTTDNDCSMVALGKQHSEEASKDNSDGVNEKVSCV

affinity for 5-HT2A receptors (5-HT2A receptors): no affinity
affinity for 5-HT3 receptors (5-HT3 receptors): no affinity
agonism of 5-HT4 receptors (5-HT4 receptors): potent and selective agonist
Compound: COCCCN1CCC(NC(=O)c2cc(Cl)c(N)c3c2OCC3)CC1 [Prucalopride, 4-amino-5-chloro-2,3-dihydro-N-[1-(3-methoxypropyl)-4-piperidinyl]-7-benzofuran-carboxamide]
colonic motility and defecation [1]: stimulates colonic motility and defecation
